Among the data in patent publication US20140148500A1, “PROGRAMMABLE SELF-ASSEMBLED NANOSTRUCTURES BASED ON SIDECHAIN-MODIFIED PNA FOR THE MULTIVALENT DISPLAY OF LIGANDS” (priority 2010, published 2014) are IC50 values, retold here.

Several values for one entry are separate records, joined by “and”; a condition that tells them apart may be missing. Equal values may be shown once.

By IC50 is commonly meant the concentration needed to halve the response being measured.

The test system of the assay is C32 cells. Description: Cell adhesion assay, IC50 of multivalent RGD constructs (method of Sipes et al.). Format: cell-based. To be noted: read-out: IC50 Data (nM), RGD control result in parenthesis, unnormalized, control run alongside the data point it follows. The text has this: Multi 1 indicates one PNA construct associated with the DNA. Multi 2 indicates two PNA construct associated with the DNA and so on. […] In the constructs depicted herein, the designator in parentheses (T5, for example) represents the number of thymine bases in the DNA sequence that is inserted to create a spacer between adjacent PNA binding portions of the DNA. T0 represents the absence of any spacer thymine bases. […] “x” indicates no data is available for that experiment. […] Constructs from Example 5 were utilized herein.

For the molecule `N=C(N)NCCC[C@@H]1NC(=O)[C@H](CCCCN)NC(=O)[C@@H](Cc2ccccc2)NC(=O)[C@H](CC(=O)O)NC(=O)CNC1=O` [RGD], the IC50 was 475 nM and 329 nM and 690 nM.
